Like-named read-outs stand apart in the source and are kept apart here.
Assays:
[1] = molecular target: T1, Rat recombinant PDE10A (rPDE10A2) (Rattus norvegicus, UniProt Q9QYJ6); assay: In vitro assay PDE10A (SPA, 3H-cAMP); format: biochemical
T1 construct: inferred from the Ni metal chelate purification; made in house; host or cells: Sf9 insect cells (baculovirus)
T1 sequence (Q9QYJ6 1-794): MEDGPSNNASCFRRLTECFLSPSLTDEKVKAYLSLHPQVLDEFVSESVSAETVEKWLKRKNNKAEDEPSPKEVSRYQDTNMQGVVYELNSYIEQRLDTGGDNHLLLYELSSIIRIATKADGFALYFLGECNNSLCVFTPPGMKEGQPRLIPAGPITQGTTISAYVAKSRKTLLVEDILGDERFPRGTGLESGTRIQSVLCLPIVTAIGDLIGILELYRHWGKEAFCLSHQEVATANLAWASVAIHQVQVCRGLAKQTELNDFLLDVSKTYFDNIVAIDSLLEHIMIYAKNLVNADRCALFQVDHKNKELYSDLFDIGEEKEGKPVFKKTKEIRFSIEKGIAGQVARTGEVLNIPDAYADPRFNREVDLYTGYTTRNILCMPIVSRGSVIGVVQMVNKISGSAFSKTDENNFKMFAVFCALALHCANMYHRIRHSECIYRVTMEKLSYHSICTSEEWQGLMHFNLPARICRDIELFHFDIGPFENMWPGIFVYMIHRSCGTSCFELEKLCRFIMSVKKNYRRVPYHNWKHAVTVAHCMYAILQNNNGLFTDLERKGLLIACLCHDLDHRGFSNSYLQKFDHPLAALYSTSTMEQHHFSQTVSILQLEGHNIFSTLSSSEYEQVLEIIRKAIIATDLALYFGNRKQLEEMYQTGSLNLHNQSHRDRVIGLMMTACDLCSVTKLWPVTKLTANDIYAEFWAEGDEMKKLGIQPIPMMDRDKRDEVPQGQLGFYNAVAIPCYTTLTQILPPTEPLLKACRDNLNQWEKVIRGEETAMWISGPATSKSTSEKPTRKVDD
Outline: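 Rat PDE10A2 expressed in Sf9 cells and Ni-purified; incubated with 60 nM cAMP plus 0.008 μCi 3H-cAMP in 50 mM Tris pH 7.8, 8.3 mM MgCl2, 1.7 mM EGTA for 60 min at room temperature. Product quantified by scintillation proximity counting; final DMSO 1%.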

[2] = tested on: apomorphine-induced stereotypy in rats; assay: Apomorphine-induced stereotypy in rats (APO); format: in vivo; conditions: Rattus norvegicus
Procedure: Apomorphine (1.0 mg/kg, i.v.)-induced stereotypy (compulsive sniffing, licking, chewing) was scored every 5 min over the first hour after injection of apomorphine, following a 1 hour interval pre-treatment with the test compound. The score system was: (3) pronounced, (2) moderate, (1) slight, and (0) absent.

[3] = molecular target: other members of the PDE family (Homo sapiens, UniProt O00408); assay: In vitro PDE selectivity assay (SPA), other members of the PDE family (protocols in Table A); format: biochemical; conditions: hPDE2A; read-out: PDE 2A (expressed as pIC50) (converted)
Procedure: Rat recombinant PDE10A (rPDE10A2) was expressed in Sf9 cells using a recombinant rPDE10A baculovirus construct. Cells were harvested after 48 h of infection and the rPDE10A protein was purified by metal chelate chromatography on Ni-sepharose 6FF. Tested compounds were dissolved and diluted in 100% DMSO to a concentration 100 fold of the final concentration in the assay. Compound dilutions (0.4 μl) were added in 384 well plates to 20 μl of incubation buffer (50 mM Tris pH 7.8, 8.3 mM MgCl2, 1.7 mM EGTA). 10 μl of rPDE10A enzyme in incubation buffer was added and the reaction was started by addition of 10 μl substrate to a final concentration of 60 nM cAMP and 0.008 μCi ^3H-cAMP. The reaction was incubated for 60 minutes at room temperature. After incubation, the reaction was stopped with 20 μl of stop solution consisting of 17.8 mg/ml PDE SPA (scintillation proximity assay) beads. After sedimentation of the beads during 30 minutes the radioactivity was measured in a Perkin Elmer Topcount scintillation counter and results were expressed as cpm. For blanc values the enzyme was omitted from the reaction and replaced by incubation buffer. Control values were obtained by addition of a final concentration of 1% DMSO instead of compound. The same assay principle is applied for the measurement of the affinity of the compound for other members of the PDE family with appropriate modifications in incubation buffer, substrate concentration, incubation time and stop solution. An overview of the different protocols is presented in table A. A best fit curve is fitted by a minimum sum of squares method to the plot of % of control value substracted with blanc value versus compound concentration and the half maximal inhibitory concentration (IC50) value is derived from this curve.
The compounds of the invention are generally selective for PDE10 compared to other PDEs and there are a few that also have affinity for PDE1B1, 4D3 and 5A3.

[4] = Table 4 in vitro selectivity, read-out: PDE 10A2 (expressed as pIC50) (converted)
[5] = pIC50 corresponds to the −log IC50 expressed in mol/L, read-out: PDE10A2 pIC50 (converted)
[6] = dose at which 50% of the tested animals show the effect, ≧: active in 30% of the animals at the indicated dose, ≦: active in 60%
[7] = po, * compound not soluble, tested orally as a suspension, ≧: active in 30% of the animals at the indicated dose, ≦: active in 60%
[8] = po, n.d.: found not active at threshold dose 2.5 mg/kg or 10 mg/kg (a), * not soluble, tested orally as a suspension
[9] = n.d.: found not active at threshold dose 2.5 mg/kg or 10 mg/kg (a), not further tested

other members of the PDE family, sequence (O00408 whole entry): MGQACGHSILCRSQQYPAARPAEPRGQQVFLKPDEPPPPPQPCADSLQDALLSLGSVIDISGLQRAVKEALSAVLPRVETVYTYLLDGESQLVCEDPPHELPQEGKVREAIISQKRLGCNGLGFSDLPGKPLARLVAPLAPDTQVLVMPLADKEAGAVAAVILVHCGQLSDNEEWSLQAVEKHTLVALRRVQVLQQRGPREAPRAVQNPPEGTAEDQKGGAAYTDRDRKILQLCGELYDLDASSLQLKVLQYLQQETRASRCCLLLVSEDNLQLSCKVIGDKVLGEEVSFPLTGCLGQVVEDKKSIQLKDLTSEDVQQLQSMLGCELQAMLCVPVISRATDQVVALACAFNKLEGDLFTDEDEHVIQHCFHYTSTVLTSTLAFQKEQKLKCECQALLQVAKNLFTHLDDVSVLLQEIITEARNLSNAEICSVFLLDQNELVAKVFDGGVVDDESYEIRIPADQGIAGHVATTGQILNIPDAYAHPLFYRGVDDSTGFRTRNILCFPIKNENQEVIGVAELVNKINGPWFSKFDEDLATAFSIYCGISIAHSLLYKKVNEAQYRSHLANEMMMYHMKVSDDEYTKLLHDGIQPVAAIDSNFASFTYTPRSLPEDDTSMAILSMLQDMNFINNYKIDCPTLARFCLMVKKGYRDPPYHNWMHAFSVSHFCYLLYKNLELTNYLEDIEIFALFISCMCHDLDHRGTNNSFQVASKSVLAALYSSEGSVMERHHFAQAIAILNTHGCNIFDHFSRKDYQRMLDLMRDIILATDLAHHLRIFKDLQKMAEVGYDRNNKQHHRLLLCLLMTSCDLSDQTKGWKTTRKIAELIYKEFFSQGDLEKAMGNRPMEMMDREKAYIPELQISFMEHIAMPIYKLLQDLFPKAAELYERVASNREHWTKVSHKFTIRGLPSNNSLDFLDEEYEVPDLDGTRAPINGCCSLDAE

| SMILES | IC50 [1, 4] [nM] | IC50 [1, 5] [nM] | ED50 [2, 6] [mg/kg] | IC50 [3] [nM] | ED50 [2, 7] [mg/kg] | ED50 [2, 8] [mg/kg] | ED50 [2, 9] [mg/kg] |
| --- | --- | --- | --- | --- | --- | --- | --- |
| COC(C)(C)Cc1ccc(-c2c(C3CC3)nc3c(-c4ccncc4)ccnn23)cn1 [compound 50, 2-cyclopropyl-3-[6-(2-methoxy-2-methylpropyl)-3-pyridinyl]-8-(4-pyridinyl)-imidazo[1,2-b]pyridazine] | 14.5 | 14.5 | 0.8 | 6920 | – | – | – |
| CC(C)(O)Cc1ccc(-c2c(C3CC3)nc3c(N4CCOCC4)ccnn23)cn1 [compound 54, 5-[2-cyclopropyl-8-(4-morpholinyl)imidazo[1,2-b]pyridazin-3-yl]-α,α-dimethyl-2-pyridineethanol] | 20.9 | 20.9 | 1.2 | > 10000 | – | – | – |
| COCCc1ccc(-c2cnc3c(-c4ccncc4)ccnn23)cn1 [compound 57, 3-[6-(2-methoxyethyl)-3-pyridinyl]-8-(4-pyridinyl)-imidazo[1,2-b]pyridazine] | 427 | 427 | – | > 10000 | – | – | – |
| Cc1cc(N2CCOCC2)c2nc(C)c(-c3ccc(N4CCOCC4)nc3)n2n1 [compound 68, 2,6-dimethyl-8-(4-morpholinyl)-3-[6-(4-morpholinyl)-3-pyridinyl]-imidazo[1,2-b]pyridazine] | 158 | 158 | – | > 10000 | ≥ 2.5 | – | – |
| Cc1cc(-c2ccncc2)c2nc(C3CC3)c(-c3ccc(N4CCOCC4)nc3)n2n1 [compound 71, 2-cyclopropyl-6-methyl-3-[6-(4-morpholinyl)-3-pyridinyl]-8-(4-pyridinyl)-imidazo[1,2-b]pyridazine] | 83.2 | 83.2 | – | 2290 | ≥ 2.5 | – | – |
| COCCOc1ccc(-c2c(C3CC3)nc3c(-c4ccncc4)cc(C)nn23)cn1 [compound 72, 2-cyclopropyl-3-[6-(2-methoxyethoxy)-3-pyridinyl]-6-methyl-8-(4-pyridinyl)-imidazo[1,2-b]pyridazine] | 123 | 123 | – | 1050 | ≥ 2.5 | – | – |
| COCCOc1ccc(-c2c(C3CC3)nc3c(N4CCOCC4)cc(C)nn23)cn1 [compound 74, 2-cyclopropyl-3-[6-(2-methoxyethoxy)-3-pyridinyl]-6-methyl-8-(4-morpholinyl)-imidazo[1,2-b]pyridazine] | 589 | 589 | – | > 10000 | – | – | – |
| Cc1cc(N2CCOCC2)c2nc(C3CC3)c(-c3ccc(N4CCOCC4)nc3)n2n1 [compound 75, 2-cyclopropyl-6-methyl-8-(4-morpholinyl)-3-[6-(4-morpholinyl)-3-pyridinyl]-imidazo[1,2-b]pyridazine] | 447 | 447 | – | > 10000 | – | – | – |
| CCc1ccc(-c2c(C3CC3)nc3c(N4CCOCC4)cc(C)nn23)cn1 [compound 84, 2-cyclopropyl-3-(6-ethyl-3-pyridinyl)-6-methyl-8-(4-morpholinyl)-imidazo[1,2-b]pyridazine] | 372 | 372 | – | > 10000 | – | – | – |
| COCCc1ccc(-c2c(C3CC3)nc3c(N4CCOCC4)cc(C(F)(F)F)nn23)cn1 [compound 85, 2-cyclopropyl-3-[6-(2-methoxyethyl)-3-pyridinyl]-8-(4-morpholinyl)-6-(trifluoromethyl)-imidazo[1,2-b]pyridazine] | 661 | 661 | – | > 10000 | – | – | – |
| Cc1nc2c(N3CCOCC3)cc(C3CC3)nn2c1-c1ccc(N2CCOCC2)nc1 [compound 94, 6-cyclopropyl-2-methyl-8-(4-morpholinyl)-3-[6-(4-morpholinyl)-3-pyridinyl]-imidazo[1,2-b]pyridazine] | 380 | 380 | – | > 10000 | – | – | – |
| Cc1cc(N2CCOCC2)c2nc(C3CC3)c(-c3ccc(N4CCNCC4)nc3)n2n1 [compound 100, 2-cyclopropyl-6-methyl-8-(4-morpholinyl)-3-[6-(1-piperazinyl)-3-pyridinyl]-imidazo[1,2-b]pyridazine] | 724 | 724 | – | > 10000 | – | – | – |
| Cc1cc(N2CCOCC2)c2nc(C)c(-c3ccc(C4CC4)nc3)n2n1 [compound 110, 3-(6-cyclopropyl-3-pyridinyl)-2,6-dimethyl-8-(4-morpholinyl)-imidazo[1,2-b]pyridazine] | 331 | 331 | – | > 10000 | – | – | – |
| c1cc(N2CCOCC2)c2ncc(-c3ccc(C4CC4)nc3)n2n1 [compound 112, 3-(6-cyclopropyl-3-pyridinyl)-8-(4-morpholinyl)-imidazo[1,2-b]pyridazine] | 427 | 427 | – | 8130 | – | – | – |
| COCCn1cc(-c2c(C)nc3c(-c4ccncc4)cc(C(F)(F)F)nn23)cn1 [compound 129, 3-[1-(2-methoxyethyl)-1H-pyrazol-4-yl]-2-methyl-8-(4-pyridinyl)-6-(trifluoromethyl)-imidazo[1,2-b]pyridazine] | 2630 | 2630 | – | > 10000 | – | – | – |
| COCCn1cc(-c2c(C)nc3c(N4CCCC4)ccnn23)cn1 [compound 136, 3-[1-(2-methoxyethyl)-1H-pyrazol-4-yl]-2-methyl-8-(1-pyrrolidinyl)-imidazo[1,2-b]pyridazine] | 525 | 525 | – | > 10000 | – | – | – |
| COCCn1cc(-c2c(C(F)(F)F)nc3c(N4CCOCC4)ccnn23)cn1 [compound 139, 3-[1-(2-methoxyethyl)-1H-pyrazol-4-yl]-8-(4-morpholinyl)-2-(trifluoromethyl)-imidazo[1,2-b]pyridazine] | – | 69.2 | – | – | – | > 2.5 | – |
| FC(F)(F)Cn1cc(-c2c(C3CC3)nc3c(-c4ccncc4)ccnn23)cn1 [compound 141, 2-cyclopropyl-8-(4-pyridinyl)-3-[1-(2,2,2-trifluoroethyl)-1H-pyrazol-4-yl]-imidazo[1,2-b]pyridazine] | – | 10 | – | – | – | > 2.5 | – |
| c1cc(N2CCOCC2)c2ncc(-c3ccc(N4CCOCC4)nc3)n2n1 [compound 144, 8-(4-morpholinyl)-3-[6-(4-morpholinyl)-3-pyridinyl]-imidazo[1,2-b]pyridazine] | 324 | 324 | – | > 10000 | – | – | – |
| COCCc1ccc(-c2c(C(F)(F)F)nc3c(N4CCOCC4)ccnn23)cn1 [compound 145, 3-[6-(2-methoxyethyl)-3-pyridinyl]-8-(4-morpholinyl)-2-(trifluoromethyl)-imidazo[1,2-b]pyridazine] | – | 58.9 | – | – | – | – | > 2.5 |
| COCCOc1cncc(-c2c(C)nc3c(-c4ccncc4)ccnn23)c1 [compound 149, 3-[5-(2-methoxyethoxy)-3-pyridinyl]-2-methyl-8-(4-pyridinyl)-imidazo[1,2-b]pyridazine] | – | 151 | – | – | – | – | > 2.5 |
